Results as given in publication PMC7359870 (Journal of the American Chemical Society, 2020).
Entries after “also recorded” stand apart in the source; their conditions may differ. Starred links: 1 amine or outer side, 2 acyl side, 3 side chain; linkers in the order of their positions; H or OH if unused. Non-standard residues stand in square brackets, D forms with d. Residues, ends and D or L forms follow the SMILES beside them. *: point of attachment. X1 = CC(C)C[C@H](NC(=O)N(Cc1ccccc1)C[C@@H](O)[C@H](Cc1ccccc1)N*)C(=O)N[C@H](C(N)=O)C(C)C; X2 = CC(C)[C@H](NC(=O)[C@H](C)NC(=O)N(Cc1ccccc1)C[C@@H](O)[C@H](Cc1ccccc1)N*)C(N)=O; NH(CH2)8CO = O=C(CCCCCCCCN[*:1])[*:2]; Boc = CC(C)(C)OC(=O)*; Aib = CC(C)(N)C(=O)O; Ava = NCCCCC(=O)O

Columns and labels:
[1] = molecular target: T1, γ-secretase (Homo sapiens, UniProt P49768); assay: Enzyme inhibition kinetics; format: biochemical
[2] = molecular target: presenilin-1 (PS1) N-terminal fragment (NTF) of γ-secretase (Homo sapiens, UniProt P49768); conditions: solubilized lysates from γ-secretase-expressing human embryonic kidney 293 cells
[3] = molecular target: purified γ-secretase (Homo sapiens, UniProt P49768); assay: Purified enzyme assay: inhibition of γ-secretase; format: biochemical
[4] = molecular target: T1, γ-secretase; assay: Cross-competition kinetic experiment between two inhibitors; format: biochemical; conditions: for cross-competition with HPI 2 for binding: second inhibitor HPI 2 (docking site); for cross-competition with TSA 17 for binding: second inhibitor TSA 17 (active site)

Compound | type of inhibition (enzyme inhibition kinetics) [1] | labelling of PS1 NTF by active-site-directed photoprobe TSA-Bpa-Bt [2] | labelling of PS1 NTF by docking-site-directed photoprobe HPI-Bpa-Bt [2] | further results
CC[C@H](C)[C@H](NC(=O)[C@@H](NC(=O)[C@@H](NC(=O)C(C)(C)NC(=O)CNC(=O)[C@@H](NC(=O)OC(C)(C)C)C(C)C)C(C)C)C(C)C)C(=O)NC(C)(C)C(=O)N[C@@H](Cc1ccccc1)C(=O)N[C@H](C(=O)NC(C)(C)C(=O)NCCCCCCCCC(=O)N[C@H](C(=O)N[C@@H](Cc1ccccc1)[C@H](O)CN(Cc1ccccc1)C(=O)N[C@@H](C)C(=O)N[C@H](C(N)=O)C(C)C)C(C)C)C(C)C [Compound 16] (Boc-VG[Aib]VVI[Aib]FV[Aib][NH(CH2)8CO]V-X2; N-terminus and C-terminus assumed) | noncompetitive inhibition | Decreased photolabelling; also recorded: decreased labelling | Decreased photolabelling; also recorded: decreased labelling | 
CC[C@H](C)[C@H](NC(=O)[C@@H](NC(=O)[C@@H](NC(=O)C(C)(C)NC(=O)CNC(=O)[C@@H](NC(=O)OC(C)(C)C)C(C)C)C(C)C)C(C)C)C(=O)NC(C)(C)C(=O)N[C@@H](Cc1ccccc1)C(=O)N[C@H](C(=O)NC(C)(C)C(=O)NCCCCC(=O)N[C@H](C(=O)N[C@@H](Cc1ccccc1)[C@H](O)CN(Cc1ccccc1)C(=O)N[C@@H](CC(C)C)C(=O)N[C@H](C(N)=O)C(C)C)C(C)C)C(C)C [Compound 5, Boc-Val-Gly-Aib-Val-Val-Ile-Aib-Phe-Val-Aib-NH(CH2)4CO-Val-Phe-ψ-Phe-Leu-Val-NH2] (Boc-VG[Aib]VVI[Aib]FV[Aib][Ava]V-X1) |  |  |  | potency compared to TSA 1 or HPI 2 (fold increase) ([3]; relative to IC50 of TSA 1 or HPI 2): 4-to-6 fold
CC[C@H](C)[C@H](NC(=O)[C@H](NC(=O)[C@H](NC(=O)C(C)(C)NC(=O)CNC(=O)[C@@H](NC(=O)OC(C)(C)C)C(C)C)C(C)C)C(C)C)C(=O)NC(C)(C)C(=O)N[C@@H](Cc1ccccc1)C(=O)N[C@H](C(=O)NC(C)(C)C(=O)NCCCCCCCCC(=O)N[C@H](C(=O)N[C@@H](Cc1ccccc1)[C@H](O)CN(Cc1ccccc1)C(=O)N[C@@H](CC(C)C)C(=O)N[C@H](C(N)=O)C(C)C)C(C)C)C(C)C [Compound 9, Boc-Val-Gly-Aib-^DVal-^D Val-Ile-Aib-Phe-Val-Aib-NH(CH2)8CO-Val-Phe-ψ-Phe-Leu-Val-NH2] (Boc-VG[Aib][dV][dV]I[Aib]FV[Aib][NH(CH2)8CO]V-X1) |  |  |  | reduction of inhibitory potency relative to 6 ([3]; relative to HPI-TSA 6): decreased nearly eight-fold
CC[C@H](C)[C@H](NC(=O)[C@@H](NC(=O)[C@@H](NC(=O)C(C)(C)NC(=O)CNC(=O)[C@@H](NC(=O)OC(C)(C)C)C(C)C)C(C)C)C(C)C)C(=O)NC(C)(C)C(=O)N[C@@H](Cc1ccccc1)C(=O)N[C@H](C(=O)NC(C)(C)C(=O)NCCCCCCCCC(=O)N[C@H](C(=O)N[C@@H](Cc1ccccc1)[C@H](O)CN(Cc1ccccc1)C(=O)N[C@@H](CC(C)C)C(=O)N[C@H](C(N)=O)C(C)C)C(C)C)C(C)C [Compound 6, Boc-Val-Gly-Aib-Val-Val-Ile-Aib-Phe-Val-Aib-NH(CH2)8CO-Val-Phe-ψ-Phe-Leu-Val-NH2] (Boc-VG[Aib]VVI[Aib]FV[Aib][NH(CH2)8CO]V-X1) | noncompetitive inhibition | Decreased photolabelling; also recorded: decreased labelling | Decreased photolabelling; also recorded: decreased labelling | cross-competition with HPI 2 for binding [4]: competed; cross-competition with HPI 2 for binding ([4]; listed as HPI-TSA 6): competes; cross-competition with TSA 17 for binding [4]: competed; cross-competition with TSA 17 for binding ([4]; listed as HPI-TSA 6): competes
